Experimental data reported in the supplement of paper PMC10307832.

What was measured:
Assay in all cases: relative viability (nuclei count vs DMSO), 5 days (fraction); higher = more cells survive
KN-93 + Bortezomib = compound: CN(C/C=C/C1=CC=C(C=C1)Cl)CC2=CC=CC=C2N(CCO)S(=O)(=O)C3=CC=C(C=C3)OC [KN-93] + CC(C)C[C@H](NC(=O)[C@H](Cc1ccccc1)NC(=O)c1cnccn1)B(O)O [Bortezomib] (partner 0.002 µM)
Outline: (§1)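 The day after seeding in 1536-well plates, lung cancer cell lines were treated by pin tool with a single drug, or with a fixed anchor-drug dose together with five library-drug doses (not always all listed) in √10 steps. After 5 days, a combined fix-and-stain solution (final 0.05% Triton X-100, 1% formaldehyde, 1 ug/ml Hoechst) was added. Nuclei counted on 4× images gave relative viability as treated counts over vehicle counts, reported as the median of duplicate plates.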

KN-93 + Luminespib = compound: CN(C/C=C/C1=CC=C(C=C1)Cl)CC2=CC=CC=C2N(CCO)S(=O)(=O)C3=CC=C(C=C3)OC [KN-93] + CCNC(=O)c1noc(-c2cc(C(C)C)c(O)cc2O)c1-c1ccc(CN2CCOCC2)cc1 [Luminespib] (partner 0.01 µM)
Outline: as §1

KN-93 + Foretinib = compound: CN(C/C=C/C1=CC=C(C=C1)Cl)CC2=CC=CC=C2N(CCO)S(=O)(=O)C3=CC=C(C=C3)OC [KN-93] + COc1cc2c(Oc3ccc(NC(=O)C4(C(=O)Nc5ccc(F)cc5)CC4)cc3F)ccnc2cc1OCCCN1CCOCC1 [Foretinib] (partner 0.25 µM)
Outline: as §1

KN-93 + Tozasertib = compound: CN(C/C=C/C1=CC=C(C=C1)Cl)CC2=CC=CC=C2N(CCO)S(=O)(=O)C3=CC=C(C=C3)OC [KN-93] + Cc1cc(Nc2cc(N3CCN(C)CC3)nc(Sc3ccc(NC(=O)C4CC4)cc3)n2)n[nH]1 [Tozasertib] (partner 0.1 µM)
Outline: as §1

KN-93 + Vorinostat = compound: CN(C/C=C/C1=CC=C(C=C1)Cl)CC2=CC=CC=C2N(CCO)S(=O)(=O)C3=CC=C(C=C3)OC [KN-93] + O=C(CCCCCCC(=O)Nc1ccccc1)NO [Vorinostat] (partner 1 µM)
Outline: as §1

Row | Cell Line | relative viability (KN-93 + Bortezomib; first compound 0.08 µM) | relative viability (KN-93 + Bortezomib; first compound 0.253 µM) | relative viability (KN-93 + Bortezomib; first compound 2.53 µM) | relative viability (KN-93 + Bortezomib; first compound 8 µM) | relative viability (KN-93 + Luminespib; first compound 0.08 µM) | relative viability (KN-93 + Luminespib; first compound 0.253 µM) | relative viability (KN-93 + Luminespib; first compound 2.53 µM) | relative viability (KN-93 + Luminespib; first compound 8 µM) | relative viability (KN-93 + Foretinib; first compound 0.08 µM) | relative viability (KN-93 + Foretinib; first compound 0.253 µM) | relative viability (KN-93 + Foretinib; first compound 2.53 µM) | relative viability (KN-93 + Foretinib; first compound 8 µM) | relative viability (KN-93 + Tozasertib; first compound 0.08 µM) | relative viability (KN-93 + Tozasertib; first compound 0.253 µM) | relative viability (KN-93 + Tozasertib; first compound 2.53 µM) | relative viability (KN-93 + Tozasertib; first compound 8 µM) | relative viability (KN-93 + Vorinostat; first compound 0.08 µM) | relative viability (KN-93 + Vorinostat; first compound 0.253 µM) | relative viability (KN-93 + Vorinostat; first compound 2.53 µM) | relative viability (KN-93 + Vorinostat; first compound 8 µM)
1 | HCC-15 | 0.838 | 1.27 | 1.17 | 0.634 | 0.297 | 0.319 | 0.504 | 0.279 | 0.914 | 1.12 | 1.11 | 0.807 | 0.284 | 0.523 | 0.312 | 0.101 | 0.773 | 0.877 | 0.932 | 0.738
2 | HCC-44 | 0.834 | 0.801 | 1.03 | 0.751 | 1.28 | 1.01 | 1.12 | 0.752 | – | – | – | – | 0.912 | 0.809 | 0.863 | 0.526 | 1.13 | 1.1 | 1.12 | 0.915
3 | HCC-78 | 0.462 | – | 0.37 | 0.531 | – | – | – | – | 0.564 | 0.475 | 0.579 | 0.525 | 0.392 | 0.369 | 0.369 | 0.382 | 0.465 | 0.405 | 0.739 | 0.381
4 | HCC-366 | – | 1.48 | 1.57 | 0.955 | – | – | – | – | 0.909 | 1.02 | 0.796 | 0.379 | 0.0849 | 0.0834 | 0.111 | 0.0411 | 0.301 | 0.251 | 0.514 | 0.168
5 | HCC-827 | 1.01 | 1.11 | 0.972 | 0.872 | 0.642 | 0.836 | 0.496 | 0.465 | 1.05 | 1.09 | 0.931 | 0.577 | 0.445 | 0.492 | 0.404 | 0.337 | 0.929 | 0.874 | 0.793 | 0.777
6 | HOP-62 | 0.442 | 1.28 | 0.958 | 0.711 | 0.842 | 1.13 | 0.995 | 0.903 | 1.2 | 1.22 | 1.26 | 0.958 | 0.395 | 0.44 | 0.401 | 0.273 | 0.557 | 0.824 | 0.748 | 0.487
7 | IA-LM | 0.738 | 0.875 | 0.991 | 0.481 | – | – | – | – | – | 1.36 | 1.3 | 0.926 | – | – | – | – | 0.428 | 1.02 | 0.982 | 1.05
8 | LK-2 | – | – | – | – | 0.225 | 0.176 | 0.212 | 0.174 | 1.16 | 1.58 | 1.48 | 1.15 | 0.212 | 0.191 | 0.163 | 0.158 | 0.241 | 0.279 | 0.426 | 0.19
9 | NCI-H358 | – | – | – | – | 0.289 | 0.53 | 0.273 | 0.266 | 0.519 | 0.733 | 0.64 | 0.335 | 0.1 | 0.105 | 0.089 | 0.103 | 0.659 | 0.79 | 0.824 | 0.459
10 | NCI-H522 | – | – | – | – | 1.28 | 1.4 | 1.39 | 1.11 | – | – | – | – | 0.551 | 0.536 | 0.566 | 0.511 | 0.886 | 0.966 | 0.857 | 0.858
11 | NCI-H1395 | – | – | – | – | 0.631 | 0.619 | 0.664 | 0.604 | 1.09 | 0.934 | 0.964 | 0.697 | 0.733 | 0.671 | 0.8 | 0.476 | 0.844 | 0.721 | 0.559 | 0.432
12 | NCI-H1703 | 0.381 | 0.302 | 0.418 | 0.166 | – | – | – | – | 0.351 | 0.364 | 0.352 | 0.238 | – | – | – | – | – | – | – | –
13 | NCI-H1792 | – | 0.923 | 1.04 | 0.781 | 0.272 | 0.396 | 0.31 | 0.367 | – | – | – | – | – | – | – | – | – | – | – | –
14 | NCI-H1793 | – | – | – | – | 0.193 | 0.179 | 0.195 | 0.166 | 0.729 | 0.799 | 0.642 | 0.287 | 0.305 | 0.23 | 0.315 | 0.258 | 0.882 | 0.565 | 0.89 | 0.249
15 | NCI-H1944 | – | – | – | – | 0.741 | 0.699 | 0.729 | 0.43 | 0.831 | 0.835 | 0.709 | 0.557 | 0.269 | 0.221 | 0.257 | 0.218 | 0.502 | 0.627 | 0.522 | 0.249
16 | NCI-H2170 | – | – | – | – | 0.785 | 0.852 | 0.963 | 0.483 | 0.973 | 1.23 | 0.903 | 0.892 | 0.755 | 0.845 | 0.729 | 0.454 | 0.717 | 0.907 | 0.932 | 0.522
17 | SK-MES-1 | – | – | – | – | 0.899 | 0.69 | 0.728 | 0.286 | 0.857 | 0.656 | 0.937 | 0.999 | 0.919 | 0.98 | 1.04 | 0.4 | 1.11 | 1.12 | 1.14 | 0.924
18 | SW 900 | – | – | – | – | 0.166 | 0.178 | 0.145 | 0.182 | 0.851 | 0.942 | 1.02 | 0.762 | 0.529 | 0.544 | 0.598 | 0.368 | 0.592 | 0.333 | 0.624 | 0.192
